Source: patent US7507739B2, “6-[(substituted)phenyl]triazolopyrimidines as anticancer agents” (Wyeth, priority 2003, dated 2009)
Where two headings read alike, the source gives them in different places.

Legend:
KB-8-5 cells = test: MTS cytotoxicity test with KB-8-5 cells (moderate P-glycoprotein); assay type: cell-based, human; details: for IC50: Homo sapiens, read-out: IC50 KB 8.5; for Ratio 8.5/KB: IC50 on KB 8.5 cells/IC50 on KB cells
Description: (§1) Human cancer cell lines, unless otherwise noted, are obtained from the American Type Culture Collection (Rockville, Md.). The following drug-sensitive parental cell lines, and their derived drug-resistant counterparts, are obtained from the originators as listed: (a) S1 (parental line from a subclone of human colon carcinoma line LS174T) and derived S1-M1-3.2 (herein called S1-M1) which expresses the MXR drug transporter protein, are provided by Dr. L. Greenberger, Wyeth Research (Rabindran, S. K., He, H., Singh, M., Brown, E., Collins, K. I., Annable, T., and Greenberger, L. M. Reversal of a novel multidrug resistance mechanism in human colon carcinoma cells by fumitremorgin C. Cancer Res., 58:5850-5858,1998); (b) parental HL-60 human promyelocytic leukemia line and derived HL-60/ADR, which expresses the MRP1 drug transporter protein, are provided by Dr. M. Center, University of Kansas (McGrath, T., and Center, M. S. Adriamycin resistance in HL60 cells in the absence of detectable P-glycoprotein. Biochem. Biophys. […] J. Biol. Chem., 261: 7762-7770,1986) via Dr. L. Greenberger, Wyeth Research.
(§2) The assay, which is sold in kit form by Promega (Madison, Wis.; CellTiter 96 AQueous Non-Radioactive Cell Proliferation Assay), is based on the conversion by viable cells, but not by dead cells, of the tetrazolium salt, MTS (3-(4,5-dimethylthiazol-2-yl)-5-(3-carboxymethoxyphenyl)-2-(4-sulphophenyl)-2H-tetrazolium, inner salt), into a water-soluble colored formazan which is detected by spectrophotometry. Compounds are tested at nine concentrations, in order to determine IC50 values. For the test procedure, cells are harvested by trypsinization (or, in the case of non-adherent cells, by simple resuspension), washed, counted and distributed to wells of 96-well flat-bottom microtiter plates at 1000 cells per well in 200 μL of medium. In addition, one row of wells on a separate plate received cells as above (“time 0” plate). All plates are incubated at 37° in humidified 5% CO2 in air for about 24 hr.
(§3) On day 2, compounds for test are diluted and added to wells. Compounds are dissolved in DMSO at 10 mg/mL. For each compound, nine serial 2-fold dilutions are prepared in DMSO. Ten μL of each dilution in DMSO is transferred to 100 μL of medium, mixed well, and then 5 μL of this dilution is transferred in quadruplicate to wells containing cells. […] Plates are returned to the incubator for three days. At the time of drug addition to the experimental plates, the MTS assay is run on the “time 0” plate. This produced the “time 0 MTS value” which is related to the number of viable cells per well at the time of drug addition.
(§4) After three days of culture with test compounds (day 5 overall), the MTS assay is done on all wells of the experimental plates. The absorbance values of the quadruplicate sample wells are averaged and divided by the average of the “time 0” values. […] The nine values for each compound are plotted against concentration, and the concentration that produced a relative color yield half way between the maximum and minimum is taken as the IC50 value.
(§5) The KB lines express different amounts of the P-glycoprotein (MDR1) membrane pump which produces resistance to the action of many cytotoxic compounds, including paclitaxel and vincristine. The parental KB line expresses no P-glycoprotein, KB-8-5 expresses moderate levels of the protein, and KB-V1 expresses very high levels.

KB-V1 cells = test: MTS cytotoxicity test with KB-V1 cells (very high P-glycoprotein); assay type: cell-based, human; details: for IC50: Homo sapiens, KB-V1 cells, MTS; for Ratio VI/KB: IC50 on KB VI cells/IC50 on KB cells; for recognition by P-glycoprotein: inferred from IC50 on KB-V1 compared to parental KB line
Description: as §1, §2, §3, §4, §5

HL-60 cells = test: MTS cytotoxicity test with HL-60 cells; assay type: cell-based; details: Homo sapiens
Description: as §1, §2, §3, §4
(§6) HL-60/ADR cells overexpress the multidrug resistance protein MRP1 which mediates resistance to some chemotherapeutics (Gottesman, M. M., Fojo, T., and Bates, S. E. Multidrug resistance in cancer: role of ATP-dependent transporters. Nature Rev. Cancer, 2: 48-58, 2002). The IC50 values of representative examples of this invention, as well as reference compounds, on HL-60/ADR are compared to values on the sensitive parental HL-60 line.

HL-60/ADR cells = test: MTS cytotoxicity test with HL-60/ADR cells (MRP1); assay type: cell-based, human; details: for IC50: Homo sapiens, HL60/ADR, read-out: IC50 HL-60/ADR; for Ratio: IC50 on HL-60/ADR cells/IC50 on HL-60 cells
Description: as §1, §2, §3, §4, §6

pure tubulin = test: Tubulin polymerization test with pure tubulin without GTP; assay type: biochemical, bovine; details: no GTP
Method: (§7) Medium is RPMI-1640 with L-glutamine, supplemented with 10% heat-inactivated fetal calf serum, 100 units/ml penicillin, and 100 μg/ml streptomycin (Gibco, Grand Island, N.Y.). Microtubule-associated protein (MAP)-rich tubulin, containing about 70% tubulin and 30% MAPs (#ML113), and highly purified tubulin (>99% pure, #TL238), both from bovine brain, are obtained from Cytoskeleton, Inc., Denver, Colo. PEM buffer (80 mM piperazine-N,N′-bis[2-ethanesulfonic acid], pH 6.9, 1 mM ethylene glycol-bis(β-aminoethyl ether)-N,N,N′,N′-tetraacetic acid, 1 mM magnesium chloride) and guanosine 5′-triphosphate (GTP) are also obtained from Cytoskeleton. [3H]paclitaxel, specific activity 14.7 Ci/mmol, is purchased from Moravek Biochemicals (Brea, Calif.). [^3H]vinblastine, specific activity 9.60 Ci/mmol and MicroSpin G-50 columns are obtained from Amersham Biosciences (Piscataway, N.J.). […] Other reagents are obtained from Sigma (St. Louis, Mo.).
Two variations of this procedure are done, one using MAP-rich tubulin and one using pure tubulin.
The procedure with pure tubulin is similar except for the following changes. […] The supernatant after centrifugation is dispensed to a 96-well plate already containing compounds. Each compound is tested in duplicate at six serial 3-fold dilutions starting at 24.3 μM. The plate reader is thermostated at 35°.

tubulin heterodimer = test: Competitive binding test, [3H]colchicine; design: species or system bovine; details: [3H]colchicine 50 nM
Method: as §7
The binding of examples of this invention to highly purified tubulin is studied by competitive inhibition methods. […] To study possible competition at the taxane site, on the other hand, polymerized tubulin (microtubules) is used because paclitaxel binds preferentially to microtubules.
Highly purified tubulin is dissolved in PEM buffer without GTP and used at a final concentration of 1.0 to 1.3 mg/ml (10 to 13 μM). […] These solutions are incubated at 24° for 1 hr and then applied to MicroSpin G-50 columns which are centrifuged for 2 min at 3000 rpm in an Eppendorf 5415C microfuge. An aliquot of each column effluent (containing tubulin and bound radioligand) is mixed with scintillation fluid and counted in a liquid scintillation spectrometer. […] The ability of the competitor to inhibit the binding of the radioligand is expressed as a percentage of control binding in the absence of any competitor.

[1] = HL-60 cells, MTS, read-out: IC50 HL-60

| SMILES | IC50 (KB-8-5 cells; KB-8-5 cells, MTS) [nM] | Ratio 8.5/KB (KB-8-5 cells) | IC50 (KB-V1 cells) [nM] | Ratio VI/KB (KB-V1 cells) | recognition by P-glycoprotein (KB-V1 cells) | IC50 (HL-60 cells; [1]) [nM] | IC50 (HL-60/ADR cells) [nM] | Ratio (HL-60/ADR cells) | absorbance increase, polymerization of pure tubulin (pure tubulin; 2.7 μM) | absorbance increase, polymerization of pure tubulin (pure tubulin; 8.1 μM) | A340 at 0 min (pure tubulin; 24.3 μM) | A340 at 5 min (pure tubulin; 24.3 μM) | A340 at 10 min (pure tubulin; 24.3 μM) | A340 at 15 min (pure tubulin; 24.3 μM) | A340 at 20 min (pure tubulin; 24.3 μM) | absorbance increase, polymerization of pure tubulin (pure tubulin; 24.3 μM, first 5 min) | [3H]Colchicine binding, percent of control without competitor, Mean (tubulin heterodimer) [%] | IC50 (KB-8-5 cells) [nM] | IC50 (HL-60 cells; HL-60, read-out: IC50 HL-60) [nM] | IC50 (HL-60/ADR cells; HL-60/ADR cells, MTS) [nM] |
| --- | --- | --- | --- | --- | --- | --- | --- | --- | --- | --- | --- | --- | --- | --- | --- | --- | --- | --- | --- | --- |
| C[C@H](Nc1c(-c2c(F)cc(OCCCN(C)C)cc2F)c(Cl)nc2ncnn12)C(F)(F)F.Cl [Example 1a, 5-chloro-6-{4-[3-(dimethylamino)propoxy]-2,6-difluorophenyl}-N-[(1S)-2,2,2-trifluoro-1-methylethyl][1,2,4]triazolo[1,5-a]pyrimidin-7-amine hydrogen chloride Salt] | 62 | 2.2 | 103 | 3.7 | show recognition by P-glycoprotein | 71 | 63 | 0.89 | no effect | lower and less rapid increase | 0 | 0.22 | 0.23 | 0.22 | 0.21 | rapid increase in absorbance | 129 | – | – | – |
| CNCCCOc1cc(F)c(-c2c(Cl)nc3ncnn3c2N[C@@H](C)C(F)(F)F)c(F)c1.Cl [Example 2a, 5-Chloro-6-{2,6-difluoro-4-[3-(methylamino)propoxy]phenyl}-N-[(1S)-2,2,2-trifluoro-1-methylethyl][1,2,4]triazolo[1,5-a]pyrimidin-7-amine hydrogen chloride] | – | – | 1120 | 48 | show recognition by P-glycoprotein | – | 47 | 1.1 | no effect | lower and less rapid increase | 0 | 0.25 | 0.24 | 0.23 | 0.22 | rapid increase in absorbance | 122 | 64 | 43 | – |
| CNCCCOc1cc(F)c(-c2c(Cl)nc3ncnn3c2NCC(F)(F)F)c(F)c1.Cl [Example 3a, 5-Chloro-6-{2,6-difluoro-4-[3-(methylamino)propoxy]phenyl}-N-(2,2,2-trifluoroethyl)[1,2,4]triazolo[1,5-a]pyrimidin-7-amine hydrogen chloride Salt] | 69 | 3.8 | 2150 | 119 | show recognition by P-glycoprotein | 26 | – | 0.81 | no effect | lower and less rapid increase | 0 | 0.19 | 0.20 | 0.20 | 0.20 | rapid increase in absorbance | 134 | – | – | 21 |
| CN(C)CCCOc1cc(F)c(-c2c(Cl)nc3ncnn3c2NCC(F)(F)F)c(F)c1.Cl [Example 4a, 5-Chloro-6-{4-[3-(dimethylamino)propoxy]-2,6-difluorophenyl}-N-(2,2,2-trifluoroethyl)[1,2,4]triazolo[1,5-a]pyrimidin-7-amine Hydrogen chloride Salt] | 58 | – | 162 | 7 | show recognition by P-glycoprotein | 52 | – | 0.65 | no effect | lower and less rapid increase | 0 | 0.14 | 0.16 | 0.16 | 0.15 | rapid increase in absorbance | 134 | – | – | 34 |
| C[C@H](Nc1c(-c2c(F)cc(OCCCO)cc2F)c(Cl)nc2ncnn12)C(F)(F)F [Example 20, 3-[4-(5-Chloro-7-{[(1S)-2,2,2-trifluoro-1-methylethyl]amino}[1,2,4]triazolo[1,5-a]pyrimidin-6-yl)-3,5-difluorophenoxy]propan-1-ol] | 66 | – | 73 | – | not recognized at all by P-glycoprotein | 155 | – | 0.48 | – | – | 0 | 0.03 | 0.03 | 0.03 | 0.03 | – | 98 | – | – | 74 |
